{
  "source": "patent US20250297243A1",
  "about": "“SINGLE CELL MULTIOMICS” (BioSkryb Genomics, Inc., priority 2022, published 2025)",
  "system": "MOLM-13 acute myeloid leukemia cells",
  "assay": "MOLM-13 quizartinib drug resistance model (cell growth under continual drug treatment)",
  "type": "cell-based",
  "protocol": "Since the ITD mutation, found in ˜20% of AML patients, hyperactivates FLT3 signaling and results in poor prognosis and relapse, non-resistant, drug-sensitive cells were treated with a continual dose of 2 nM quizartinib. This drug is a selective type II kinase inhibitor targeting FLT3. […] MOLM-13 acute myeloid leukemia cells harboring heterozygous FLT3 internal tandem duplication (ITD) were obtained from the DSMZ-German Collection of Microorganisms and Cell Cultures (ACC 554). Cells were maintained in RPMI 1640 (Gibco 11875-093) supplemented with 10% FBS and penicillin/streptomycin, and sub-cultured every 2-3 days while maintaining a density range of 2.5 E5-1.5 E6 cells/ml. For generation of the quizartinib-resistant MOLM-13 line, cells were continually treated with 2 nM quizartinib (Selleckchem AC220) or DMSO vehicle control for matched parental control line and drug replenished at each subculturing until emergence of resistant clones at 5 weeks duration in culture. Genomic DNA (Zymo Research Quick-DNA Microprep w\\Plus Kit, D3020) or total RNA (Qiagen RNeasy Plus Kit, 74034) was isolated from quizartinib-resistant and matched parental MOLM-13 cells at time of FACS sorting to generate bulk sequencing control libraries for comparison to single cell datasets and for quantitative PCR template.",
  "data": [
    {"compound": "CC(C)(C)c1cc(NC(=O)Nc2ccc(-c3cn4c(n3)sc3cc(OCCN5CCOCC5)ccc34)cc2)no1", "note": "[quizartinib]", "values": [
      {"measurement": "emergence of resistant clones, duration in culture", "setting": "continual 2 nM quizartinib, drug replenished at each subculturing", "value": 5, "unit": "weeks"},
      {"measurement": "growth inhibition/apoptosis of drug-sensitive MOLM-13 cells", "setting": "continual dose of 2 nM quizartinib, FLT3 ITD MOLM-13 cells, before resistance emerged", "value": "marked growth inhibition/apoptosis"}
    ]}
  ]
}
